From patent publication US20010005720A1, “METHOD OF TREATING CHRONIC P[…] SCARRING DISEASES” (U.S.A. AS REPRESENTED BY THE SECRETARY DEPARTMENT OF HEALTH …, priority 1995, published 2001)

Legend:
normal mesangial cells [1] = test: DNA synthesis by [3H]thymidine incorporation in normal mesangial cells; type: cell-based; conditions: day one (24 hours); PPS 5-100 μg/ml; 20% fetal bovine serum
Method: (§1) Normal mesangial cells (8) were plated in basal medium plus 20% fetal bovine serum (Gibco, Grand Island, N.Y.) in 24-well plates (Nunc, PGC Scientific Corp., Gaithersburg, Md.) at a density of 2−2.5×10^4 cells/well. At 24 hours the medium was discarded, cells were washed twice with PBS and incubated for 24-72 h in serum-free medium with 0.1% bovine serum albumin (RIA grade, Sicjma). The medium was replaced with fresh basal medium plus 20% fetal bovine serum with or without 5-100 μg/ml of PPS or compared to standard heparin (100 μg/ml). Cells of duplicate wells were trypsinized and counted in an Elzone® cell counter (Particle Data Inc., Elmhurst, Ill.) at days +3 and +5. In parallel wells, thymidine incorporation was determined by adding 1 μCi/well of [^3H] thymidine ([methyl-^3H] thymidine); 2.0 Ci/mM; DuPont NEN, Boston, Mass.). Counts were determined at day 1 or at day 3.

normal mesangial cells [2] = test: Cell growth (cell counts) in normal mesangial cells; type: cell-based
Method: as §1

[3] = system: normal mesangial cell layers; test: mRNA levels of selected molecules in normal mesangial cell layers exposed to PPS (reverse transcription); type: cell-based; conditions: PPS 100 μg/ml; day 1 compared with days 3 and 5
Excerpt: The control was β-actin, which was unchanged, consistent with the absence of proliferation in the treated cells.

GH transgenic mice = test: GH transgenic mice, oral PPS sodium in drinking water; glomerular collagen by competitive PCR; type: in vivo, mouse; conditions: about 100 mg/kg, 10-12 weeks
Method: Six GH mice were treated for 10-12 weeks with oral PPS sodium (Elmiron®, Baker Norton Pharmaceuticals, Inc.) in their drinking water and six age-matched GH mice received tap water for the same duration. The amount of PPS sodium in the drinking water was about 100 mg/kg of animal body weight.
Glomeruli were isolated by microdissection in the presence of RNase inhibitors. The left kidney was perfused with saline followed by a collagenase solution containing soluble RNase inhibitors. The lower pole was removed prior to collagenase perfusion and snap frozen on dry ice for zymography. […]
Primers for mouse α1IV and α1I collagen, α smooth muscle cell actin, β-actin, laminin B1, tenascin, 92 kDa metalloproteinase and 72 kDa metalloproteinase mRNAs, and for bovine growth hormone genomic DNA, were synthesized on a PCR-Mate (Applied Biosystems, Foster City, Calif.). […] Primer specificity for mRNA was determined by omitting the reverse transcriptase enzyme. […] This permitted a rapid, non-quantitative assessment of mRNA levels. Thereafter, competitive PCR assays were utilized to measure α1IV collagen (and the ratio of α1IV collagen to GAPDH enzyme was calculated to normalize the data between animals), PDGF-B, α smooth muscle cell actin, β-actin, and laminin B1 cDNAs by constructing a cDNA mutant for each molecule, with a small internal deletion or a new restriction enzyme site. […]

Watanabe rabbits [4] = test: Watanabe rabbits Study A: subcutaneous PPS, morphometry of aortic lesions; type: in vivo, rabbit
Method: Twelve Watanabe rabbits were divided into two groups of six each (Group A and Group B) and fed a high cholesterol diet (0.5% cholesterol). The animals of Group A were treated daily with normal saline subcutaneously, while the animals of Group B were treated daily with 10 mg/kg of PPS sodium (Elmiron®) subcutaneously.
Four of the PPS-treated animals (Group B) died prior to completion of the study, one on day 22 and three between day 80 and day 86. On day 89, the animals of Group A and the two remaining animals of Group B were euthanized and necropsied and their tissues evaluated, particularly sections from different major branches of the aorta.

Watanabe rabbits [5] = test: Watanabe rabbits Study B: oral PPS in drinking water, aortic intima/media histology; type: in vivo, rabbit; conditions: oral about 30 mg/kg/day in drinking water
Method: Twenty Watanabe rabbits were divided into four groups of five each, Groups A through D. All of the rabbits were fed the same high cholesterol diet (0.5% cholesterol). The animals of Groups A and B were given tap water to drink, while the animals of Groups C and D were given tap water containing 0.5 mg/mL of PPS sodium (Elmiron®). Based on observations of pre-study water consumption by the animals, the total daily dose of PPS sodium consumed by each animal in the treatment groups was about 30 mg/kg.
The animals of Groups A and C were euthanized and necropsied on day 50 of the study and their aortae examined.
The rabbits of Groups B and D were euthanized and necropsied on day 64 of the study. The aortae of these groups were examined histologically and the respective cross-sectional areas of the intimal and medial layers in various aortal branches were measured.

[6] = Wardle 1992; cited from earlier work
smooth muscle cell = conditions: Paul et al. 1987; Wardle; cited from earlier work
[7] = Paul et al. 1987; Wardle; cited from earlier work
[8] = 10 mg/kg/day s.c., day 89, 0.5% cholesterol diet
[9] = PPS vs control, 10 mg/kg/day s.c., day 89
[10] = all aortal cross-sections examined, 10 mg/kg/day s.c.

Substance: Pentosan polysulfate [PPS]
- concentration at which the maximum dose-response plateaued (DNA synthesis, tritiated thymidine incorporation) (normal mesangial cells [1]): 50 µg/mL
- potency relative to native heparin on a molar basis (cell growth inhibition) (normal mesangial cells [2]; PPS 100 μg/ml vs heparin 100 μg/ml, three and five days): roughly twice
- concentration of maximum inhibitory response (cell number) (normal mesangial cells [2]; day three, PPS 5-100 μg/ml, 20% fetal bovine serum): 25 µg/mL
- 92 kDa enzyme activity increase [3]: more than 50%
- TGF-β mRNA reduction [3]: 50%
- type I collagen mRNA [3]: substantially decreased
- type IV collagen mRNA [3]: no changes
- β-actin mRNA (control) [3]: unchanged
- mean type IV collagen/GAPDH ratio in glomeruli relative to untreated (control) group (GH transgenic mice): less than half
- scarring-type collagen present in glomeruli vs untreated animals (confirmed by histology and immunofluorescent microscopy) (GH transgenic mice): considerably less
- treated animals that died prior to completion of the study (Watanabe rabbits [4]; 10 mg/kg daily subcutaneously, group of six, one on day 22, three between day 80 and 86, high cholesterol diet): Four
- Plaque area, Abdominal Aorta (Watanabe rabbits [4]; [8]): 0.04 cm^2
- Plaque area, Ascending Aorta (Watanabe rabbits [4]; [8]): 0.59 cm^2
- Smooth Muscle Layer area, Abdominal Aorta (Watanabe rabbits [4]; [8]): 0.303 cm^2
- Smooth Muscle Layer area, Ascending Aorta (Watanabe rabbits [4]; [8]): 0.243 cm^2
- Smooth Muscle Layer area, Thoracic Aorta (Watanabe rabbits [4]; [8]): 0.334 cm^2
- Smooth Muscle/Plaque, Abdominal Aorta (Watanabe rabbits [4]; [8]): 7.58
- Smooth Muscle/Plaque, Ascending Aorta (Watanabe rabbits [4]; [8]): 4.12
- Smooth Muscle/Plaque, Thoracic Aorta (Watanabe rabbits [4]; [8]): 1.184
- plaque in cross-section of abdominal aorta (FIG. 11 photograph) (Watanabe rabbits [4]; 10 mg/kg/day s.c., high cholesterol diet): almost no sign of plaque
- Fold decrease in Plaque Size, Abdominal Aorta (Watanabe rabbits [4]; [9]): 10.2×
- Fold decrease in Plaque Size, Ascending Aorta (Watanabe rabbits [4]; [9]): 6.8×
- Fold decrease in Plaque Size, Thoracic Aorta (Watanabe rabbits [4]; [9]): 2.5×
- plaque deposits in comparison with control rabbits (Watanabe rabbits [4]; [10]): much smaller
- ratio of smooth muscle layer to plaque, times higher than control rabbits (Watanabe rabbits [4]; [10]): ≤ 6.8 times
- atherosclerotic plaque development in intima, visual, vs control (Watanabe rabbits [5]; day 50, Group C vs Group A): less atherosclerotic plaque development
- mean intimal cross-sectional area in each aortal branch vs untreated (Watanabe rabbits [5]; day 64, Group D vs Group B): substantially less
- ratio of intima to medial areas in every aortal branch vs untreated (Watanabe rabbits [5]; day 64, Group D vs Group B): lower
- anticoagulant potency relative to heparin [6]: about one-fifteenth
- partial thromboplastin time [6]: prolongs
- smooth muscle cell proliferation (smooth muscle cell): inhibits
- hyperlipidemia [7]: decreases
